Assay results taken from publication PMC11109052, “Metabolism characterization and toxicity of N-hydap, a marine candidate drug for lung cancer therapy by LC–MS method” (Natural Products and Bioprospecting, 2024).

How the values were obtained:
[1] = Metabolic stability in HLMs, CYP reaction; format: in vitro ADME, human; details: human, human liver microsomes (CYP reaction), pH 7.4, HLMs, CYP reaction
Experimental: (§1) Various microsomes including HLMs, HKMs, HIMs, RLMs, RKMs, MLMs and MKMs were involved in CYP and UGT reactions of N-hydap. A typical CYP incubation mixture included 0.5 mg/mL microsomes protein, 3.3 mM glucose-6-phosphate, 3.3 mM MgCl2, 0.4 U/mL glucose-6-phosphate dehydrogenase, and N-hydap (1, 2.5, or 10 μM) in the 50 mM potassium phosphate buffer (KPI, pH 7.4). The incubation mixture was preincubated at 37 °C for 5 min, and the reaction was started by adding NADP to form a NADPH-regenerating system. Simultaneously, the classic UGT reaction system consisted of 50 mM KPI, 5 mM MgCl2, 0.5 mg/mL microsomes, 0.125 mg/mL alamethicin, and 5.25 mg/mL saccharolactone. The reaction was initiated after supplying UDPGA. The CYP and UGT mixtures were incubated at 37 °C in a shaking water bath (80 rpm) for 1.5 h to enhance metabolite formation. To terminate the reaction, an ice-cold solution of Tes (50 ng/mL, dissolved in methanol and used as an internal standard) was added to half of the mixture volume. The mixture was vortexed for 30 s and then centrifuged at 13,000 rpm for 15 min to eliminate any precipitated protein. The resulting supernatant was transferred to autosampler vials, and 5 μL was injected into the LC–MS system. All reactions were conducted in triplicate.
(§2) The identical concentration of HLMs was utilized for both the CYP reaction and UGT reaction. At predetermined time intervals of 0, 15, 30, and 60 min, 100 µL samples were taken from the reaction volumes. To halt the reaction, 50 µL of 50 ng/mL Tes was added. Samples were analyzed using LC–MS to compare the remaining level of N-hydap between the CYP reaction and UGT reaction. T1/2 and CLint (in vivo) (mL/min/kg) were calculated as reported previously:
(§3) T1/2=0.693/k, where k represents the slope of the line derived from plotting the natural logarithm of the percentage (Ln %) of N-hydap remaining in the reaction mixture against the incubation time (minutes).
(§4) CLintinvivo=0.693/invitroT1/2×mLincubation/mgmicrosomes×45mgmicrosomes/gliver×20gliver/kgbodyweight.

[2] = system: HLMs (CYP reaction); test: Metabolic stability in HLMs, CYP reaction; format: in vitro ADME, human; details: for remaining percentage of N-hydap: HLMs, CYP reaction
Experimental: as §1, §2, §3, §4

[3] = system: HKMs; test: Kinetics of N-hydap glucuronidation in HKMs; format: in vitro ADME, human; details: HKM
Experimental: as §1, with “The mixture was vortexed for 30 s and then centrifuged at 13,000 rpm for 15 min to eliminate any precipitated protein. The resulting supernatant was transferred to autosampler vials, and 5 μL was injected into the LC–MS system. All reactions were conducted in triplicate.” left out
The substrate concentrations used for HLMs were 0.05, 0.5, 2, 2.5, 5, 10, 25, 50, and 100 μM. […] The rates of N-hydap-G by enzymes were expressed as nmol/mg/min, representing the amount of metabolites formed per minute per milligram of protein. Kinetic parameters were determined by analyzing the Eadie–Hofstee plots. […]

[4] = Pharmacokinetics studies in mice (plasma); format: in vivo
Experimental: Mice were fasted for 12 h with access to water before drug administration. N-Hydap was dissolved in a solution containing 50% methanol and water. Before administration, the drug was diluted with PBS to achieve concentrations of 5 mg/kg and 2 mg/kg for gastric gavage and tail vein administration, respectively. Blood samples (120 μL) were collected from the orbital venous plexus at 2, 5, 10, 15, 30, 60, 90, 120, 180, and 240 min after N-hydap administration. The blood samples were collected into heparinized micro-centrifuge tubes and immediately centrifuged at 8000 rpm for 5 min at 4 °C. Plasma samples were prepared by adding an internal standard (IS) solution, Tes to the samples, followed by vortexing. The mixtures were then centrifuged at 4 °C and 13,000 rpm for 15 min. The resulting supernatant was dried under vacuum for 3–4 h, and the dry powder was reconstituted with a solution of 50% methanol and water. Finally, the plasma samples were analyzed using LC–MS, following the previously described method.
DAS 2.0 was used to calculate pharmacokinetic parameters using the standard non-compartmental method. All results were presented as mean ± standard deviation and significant differences were analyzed using One-way ANOVA by GraphPad Prism 8. Statistical significance was defined as p < 0.05.

[5] = Stability in KPI solution (pH 7.4); format: physicochemical; details: for stability, Accuracy (Bias, %): KPI
Experimental: To verify the feasibility and reliability of the established method, studies on the linearity, accuracy, precision, and stability of N-hydap in potassium phosphate buffer (KPI, pH 7.4, were prepared by mixing KH2PO4 and K2HPO4 in corresponding proportions, and then adding NaOH and H3PO4 to pH 7.4), plasma, and tissue homogenate were carried out. The peak area ratios (analyte/IS) were plotted against the concentrations of the analytes prepared to obtain the calibration curves. Least squares linear regression analysis was used to determine the slopes, intercepts, and determination coefficients (R^2) which should be 0.99 or above of calibration curves. The standard curve equations were determined as y = 0.0001512x + 0.04394 (R^2 = 0.9980) for KPI, y = 0.001579x − 0.09233 (R^2 = 0.9923) for plasma, and y = 0.002271x + 0.03542 (R^2 = 0.9978) for tissue homogenate (Supplementary Fig. 1A–C).
The stability of the KPI solution was examined after storage at 4 °C for 24 h and incubation at 37 °C for 4 h, which was conducted using the QC samples at three concentrations (five samples for each concentration). Stability in plasma and tissue homogenate was assessed by testing samples stored at both 4 °C and room temperature for 24 h.

[6] = mouse, plasma, iv, mice, tail vein injection 2 mg/kg
[7] = mouse, plasma, mice, oral administration 5 mg/kg

For `CC1CCC2C(C=CC(C)C2C(=O)c2c(O)c(C3(O)CCC(O)C4OC43)cn(O)c2=O)C1` (centres unmarked) [N-hydap, N-Hydroxyapiosporamide], which half-life [1] is on record?
The half-life was 179 min.

What about the CLint scaled ([1]; extrapolated from in vitro T1/2, read-out: CLint (in vivo)) of the same molecule?
Its CLint scaled is 34.9 mL/min/kg.

And the “remaining percentage of N-hydap” value ([2]; 15 min)?
The value was 64.43%.

What about the “remaining percentage of N-hydap” value ([2]; 30 min) of the same molecule?
The value was 58.02%.

And the “eliminated by CYPs” value ([2]; various microsomes, after 1 h)?
Its value is “about 50%”.

What about the Km [3] of the same molecule?
The Km was 240 µM.

And the “CL, experimental results” value ([4]; Table 4 experimental column)?
Its value is “High clearance”.

And the CLz/F ([4]; mice, tail vein injection 2 mg/kg)?
The CLz/F was 31 ± 1 mL/min/kg.

And the AUC(0-t) [4, 6]?
The AUC(0-t) was 2.36 µM·h.

What about the Cmax [4, 6] of the same molecule?
Its Cmax is 4.79 ± 0.726 µM.

What about the Tmax [4, 6] of the same molecule?
The Tmax was 3 min.

What about the half-life ([4]; mouse, plasma, iv, mice, tail vein injection 2 mg/kg, read-out: t1/2z) of the same molecule?
The half-life was 61.2 ± 14.2 min.

What about the half-life ([4]; mouse, plasma, Table 4 experimental column, read-out: T1/2, experimental results) of the same molecule?
The half-life was less than 60 min.

What about the bioavailability ([4]; mouse, plasma, mice, oral 5 mg/kg vs tail vein 2 mg/kg, read-out: F (oral bioavailability)) of the same molecule?
The bioavailability was 24%.

What about the AUC(0-t) [4, 7] of the same molecule?
Its AUC(0-t) is 1.41 µM·h.

What about the Cmax [4, 7] of the same molecule?
Its Cmax is 2.06 ± 0.951 µM.

And the Tmax [4, 7]?
The Tmax was 15 min.

What about the CL/F ([4]; mouse, plasma, mice, oral administration 5 mg/kg, read-out: CLz/F) of the same molecule?
The CL/F was 134 ± 39 mL/min/kg.

And the half-life ([4]; mouse, plasma, mice, oral administration 5 mg/kg, read-out: t1/2z)?
The half-life was 57.6 ± 12.7 min.

What about the “results of the stability experiments” value ([5]; KPI solution, plasma and tissue homogenate, all storage conditions) of the same molecule?
The value was “no significant degradation”.

And the “stability, Accuracy (Bias, %)” value ([5]; 200 nM, 4℃ for 24h)?
The value was 113.85%.

And the “stability, Accuracy (Bias, %)” value ([5]; 200 nM, 37℃ for 4h)?
Its value is 87.75%.

What about the “stability, Accuracy (Bias, %)” value ([5]; 600 nM, 4℃ for 24h) of the same molecule?
Its value is 105.48%.

What about the “stability, Accuracy (Bias, %)” value ([5]; 600 nM, 37℃ for 4h) of the same molecule?
The value was 85.75%.

And the “stability, Accuracy (Bias, %)” value ([5]; 2500 nM, 4℃ for 24h)?
Its value is 104.40%.

And the “stability, Accuracy (Bias, %)” value ([5]; 2500 nM, 37℃ for 4h)?
Its value is 97.32%.
